According to patent US20220160651A1, “RAPIDLY IMPROVING ENDOTHELIAL FUNCTION, REDUCING ARTERIAL STIFFNESS AND REVERSING CALCIFICATION OF BLOOD VESSELS BY ADMINISTERING VITAMIN K” (KAYDENCE PHARMA AS, priority 2019, published 2022):

Columns and labels:
matrix gla protein (MGP) = experiment: Clinical study: blood analysis of matrix gla protein carboxylation; format: in vivo, human; settings: 360 ug/day, after 8 weeks of treatment, kidney transplant patients
Description: (§1) Participants were enrolled in a clinical trial in which the effects of vitamin K2 were determined for patients who had recently undergone a kidney transplant. At the beginning of the study, patients were subjected to a non-invasive pulse wave velocity measurement to measure arterial stiffness/flexibility, as well as blood analysis. The study participants were then instructed to receive a specific daily dose of MenaQ7 vitamin K2 menaquinone-7 (360 ug/day) for a total of 8 weeks. At the end of 8 weeks, patients were again examined with a follow-up examination, a non-invasive pulse wave velocity measurement and blood analysis and drug treatment was discontinued.
As part of the blood analysis, carboxylated matrix gla protein (MGP) was measured as a direct measure of vitamin K2 activity. The carboxylated MGP inhibits calcification of blood vessels and Vitamin K2 stimulates carboxylation of MGP.

ApoE/LDLR−/− mice = experiment: Histological assessment of plaque size and composition and vessel wall area in BCA (Example 2); format: in vivo; settings: two months
Text: Plaque size and composition as well as vessel wall area (VWA) in BCA—Histological assessment, cross-section method, BCA cross-sections: total 13000 slides, Photographed: 1214 slides
For the determination of atherosclerotic plaque area and composition BCA was dissected, fixed in 4% buffered formalin and embedded in paraffin. 5 μm-thick serial sections of BCA were collected from proximal, middle and distal parts of artery. Originally developed staining with Unna's orcein combined with Martius, Scarlet and Blue trichrome (OMSB), was applied on every tenth section (50 μm interval between each section) for visualization of collagen, elastin, fibrin, red blood cells and vascular smooth muscle cells within atherosclerotic plaque. The areas of particular components of atherosclerotic plaque as well as artery lumen and wall were determined after Columbus-based software processing (FIG. 1B) using a previously developed algorithm [Gajda M, Jasztal A, Banasik T, Jasek-Gajda E, Chlopicki S. Combined orcein and martius scarlet blue (OMSB) staining for qualitative and quantitative analyses of atherosclerotic plaques in brachiocephalic arteries in apoE/LDLR−/− mice. Histochem Cell Biol 2017. doi:10.1007/s00418-017-1538-81.

[1] = tested on: kidney transplantation patients; experiment: Clinical study: non-invasive pulse wave velocity measurement of arterial stiffness; format: in vivo, human; settings: 360 ug/day, after 8 weeks of treatment, kidney transplant patients
Description: Clinical Study to study the efficacy and safety of Vitamin K2 supplementation on arterial stiffness, the rigidity of arterial walls, in kidney transplantation patients.
A clinical study was carried out. Arterial wall property measurements were taken at t=0 and t=8 weeks and show a dramatic improvement in arterial wall flexibility. This is good support for concluding that the ingestion of vitamin K, even over this short period, is an effective way of improving endothelial function, reducing arterial stiffness and reducing calcification. […] It is surprising and unexpected because calcification is a slow progressive process and it was thought that reversing this process would also be slow and progressive.
as §1

`CC(C)=CCC/C(C)=C/CC/C(C)=C/CC/C(C)=C/CC/C(C)=C/CC/C(C)=C/CC/C(C)=C/CC1=C(C)C(=O)c2ccccc2C1=O` [MK-7, menaquinone-7] was tested, and the “mean reduction of levels of uncarboxylated MGP” value (matrix gla protein (MGP)) was 55%, the “decrease in vessel wall area (VWA) of BCA” value (ApoE/LDLR−/− mice; low and high dose (0.03 and 10 mg/kg b.w./day)) was “about 5%” and the “decrease of lipid core expressed as percent of plaque” value (ApoE/LDLR−/− mice; low and high dose) was “about 17%”. The “effect on plaque size” value (ApoE/LDLR−/− mice; low or high dose) was “did not result in a beneficial effect on plaque size”, the “plaque and lumen area expressed as percent of IWA” value (ApoE/LDLR−/− mice; low or high dose) was “did not change” and the “internal wall area (IWA)” value (ApoE/LDLR−/− mice; lower dose 0.03 mg/kg b.w./day) was “decreased only in the middle part of the vessel”. The “content of collagen in plaque” value (ApoE/LDLR−/− mice; treated vs untreated groups) was “lack of differences between treated and untreated groups” and the “mean reduction in measured pulse-wave velocity” value [1] was 30%.
